Assay results as given in patent publication US7144902B1, “Prodrugs of thrombin inhibitors” (Abbott GmbH & Co. KG, priority 1999, dated 2006).

Tested on: human colon adenocarcinoma cell lines HT-29, Caco-2 and T84; IEC-18 cell line
Assay: Transport experiments through intestinal cell layers on Transwell polycarbonate membranes (apical to basolateral)
Assay type: in vitro ADME
Design: key: +++: very good transport; ++: good transport; +: moderate transport
Details: transport rate from apical side through the cell layer to basolateral side, e.g. apical (pH 6.0) to basolateral (pH 8.0), e.g. 24 h; HPLC; divided into categories
From the text: Several in vitro models are available for studying intestinal absorption. Thus, the human colon adenocarcinoma cell lines HT-29, Caco-2 and T84 are routinely employed to investigate various intestinal transport processes (Madara et al., Am. J. Physiol. 1988, 254: G416–G423; K. L. Audus et al., Pharm. Res. 1990, 7, 435–451). The IEC-18 cell line has also shown itself to be a suitable model for investigating the permeability of hydrophilic substances through the intestinal membrane (Ma et al., J. Lab. Clin. Med. 1992 120, 329–41; Duizer et al., J. Contr. Rel. 1997 49, 39–49).
For the transport experiments (for materials and methods, see R. T. Borchardt, P. L. Smith, G. Wilson, Models for Assessing Drug Absorption and Metabolism, 1st edition, Plenum Press New York and London, 1996, chapter 2), the cells are cultivated on Transwell polycarbonate membranes for 17–24 days. The test chamber is arranged so that the membrane divides the apical from the basolateral compartment. Transport of the test substances from the apical side through the cell layer onto the basolateral side can be measured as a function of the pH gradient, for example apical (pH 6.0)→basolateral (pH 8.0).
After incubation of the cells with the test substance, samples are taken from the apical and basolateral sides after a defined time interval (e.g. 24 h). The content of test substance employed and any metabolites in each of the two compartments is determined by HPLC (comparison of retention times) and HPLC-MS (elucidation of metabolites) analyses. The transport rate is calculated.
It is possible on the basis of the results of these tests to divide test substances into the following categories: […]

Structure (SMILES) | Transport
CC(C)COC(=O)NC(=N)c1ccc(CNC(=O)C2C=CCN2C(=O)[C@H](NCC(=O)O)C2CCCCC2)s1.Cl (some centres unmarked) [Example 2, N-(Hydroxycarbonylmethyl)-(D)-cyclohexylglycyl-3,4-dehydroproline 2-(N-isobutyloxycarbonyl)amidino-5-thienylmethylamide hydrochloride] | +
Cc1ccc(CON=C(N)c2ccc(CNC(=O)C3C=CCN3C(=O)[C@H](NCC(=O)O)C3CCCCC3)s2)cc1.Cl (some centres unmarked) [Example 10, N-(Hydroxycarbonylmethyl)-(D)-cyclohexylglycyl-3.4-dehydroproline 2-(N-(p-methylbenzyloxy)amidino)-5-thienylmethylamide hydrochloride] | +
CCOC(=O)CN[C@@H](C(=O)N1CC=CC1C(=O)NCc1ccc(C(N)=NOCc2ccc(C)cc2)s1)C1CCCCC1.Cl (some centres unmarked) [Example 11, N-(Ethoxycarbonylmethyl)-(D)-cyclohexylglycyl-3.4-dehydroproline 2-(N-(p-methylbenzyloxy)amidino)-5-thienylmethylamide hydrochloride] | +++
CCCCCCCCCCCCCCCCOC(=O)CN[C@H](CC1CCCCC1)C(=O)N1CC=CC1C(=O)NCc1nc(C(=N)N)cs1.Cl.Cl (some centres unmarked) [Example 21, N-(Hexadecyloxycarbonylmethyl)-(D)-cyclohexylalanyl-3,4-dehydroproline 4-amidino-2-thiazolylmethylamide dihydrochloride] | ++
CCCCCCCCCCCCCCCCOC(=O)CN[C@H](CC1CCCCC1)C(=O)N1CC=CC1C(=O)NCc1nc(C(N)=NO)cs1.Cl (some centres unmarked) [Example 25, N-(Hexadecyloxycarbonylmethyl)-(D)-cyclohexylalanyl-3,4-dehydroproline 4-hydroxyamidino-2-thiazolylmethylamide hydrochloride] | ++
CCCCCCOC(=O)CN[C@H](CC1CCCCC1)C(=O)N1CC=CC1C(=O)NCc1nc(C(N)=NO)cs1.Cl (some centres unmarked) [Example 29, N-(Hexyloxycarbonylmethyl)-(D)-cyclohexylalanyl-3,4-dehydroproline 4-hydroxyamidino-2-thiazolylmethylamide hydrochloride] | ++
CC(C)CCOC(=O)CN[C@H](CC1CCCCC1)C(=O)N1CC=CC1C(=O)NCc1nc(C(N)=NO)cs1.Cl (some centres unmarked) [Example 33, N-(3,3-Dimethylpropyloxycarbonylmethyl)-(D)-cyclohexylalanyl-3,4-dehydroproline 4-hydroxyamidino-2-thiazolylmethylamide hydrochloride] | +++

Tested on: not listed separately
Assay: Stability of aqueous solutions of the product
Assay type: physicochemical
Details: neutral versus acidic aqueous solutions; acylated amidine function is hydrolyzed in acid
Experimental: • The crude product obtained in g), t-BuO2C—CH2-(Boc)-(D)-Chg-Pyr-NH—CH -5-(2=NH(NH—COOCH3))-thioph (1.7 g, max. 2.3 mmol), was dissolved in a mixture of 45 ml of methylene chloride, 20 ml of dioxane and 45 ml of 4N hydrochloric acid in dioxane and stirred overnight with exclusion of moisture. The reaction solution was concentrated in vacuo, and the residue was codistilled with ether several times and subsequently extracted by stirring with ether. After drying in vacuo, 1.3 g of the title compound were obtained as a white solid product. […] FAB-MS (M+H^+): 506

Structure (SMILES) | stability of aqueous solutions
COC(=O)NC(=N)c1ccc(CNC(=O)C2C=CCN2C(=O)C(NCC(=O)O)C2CCCCC2)s1.Cl (centres unmarked) [Example 1, N-(Hydroxycarbonylmethyl)-(D)-cyclohexylglycyl-3,4-dehydroproline 2-(N-methoxycarbonyl)amidino-5-thienylmethylamide hydrochloride] | distinctly more stable than acidic solutions
